In patent US7704957B2, “Composition for inhibiting HIV activity extracted from Paecilomyces sp. (Tochu-kaso) J300” (priority 2001, dated 2010):
Residues, ends and D or L forms follow the SMILES beside them.

Assays:
HIV [1] = test: Functional mechanism: sample added 30 minutes before or after virus infection; assay type: cell-based; settings: sample 30 minutes before infection, FIG. 7
Method: To determine whether a material functions or not in the cell, the mixture of cell and sample is incubated for 30 minutes then infected with virus. […] In these case, the samples permeate the membranes of the cell and suppress the propagation of the virus in the cell, as well as the samples attach on the surface of the cell and suppress the introduction of the virus into the cell (FIG. 7)
In addition, after the cell was infected with the virus and incubated for 30 minutes, then the extracts of Tochu-kaso J300 were administered. If the functional site of the active material is out of the cell, the anti-HIV activity would not be detected; on the other hand, if the functional site is in the cell, the activity would be detected. […] This proves that the active material suppresses the propagation of the virus in the cell, even when the sample is administered after a long time after the infection of the cell with virus (FIG. 8).

HIV [2] = test: Anti-HIV activity: survivability of cells protected from destruction by HIV, XTT method (National Cancer Institute method); assay type: cell-based; settings: fractions Dong 1-2-1 to 1-2-8
Method: In FIGS. 2 to 8, 11 and 18, the term “Infected” (diamond mark ♦) is for the samples that a reagent is applied after the cells are infected with the virus to observe the protection of cells from the cell destruction of HIV. The term “Uninfected” (square mark □) is for the samples that only reagent is added with different concentration to observe the toxicity of the reagent according to the concentration. Further, X axis represents the concentration of the sample and Y axis represents the survivability of the cells in percentages (%).
In the present invention, the measurement of anti-HIV activity followed the method of National Cancer Institute (U.S.A.). In the method, survivability of cells that are protected from the destruction due to HIV was measured when the cells were treated with the active component of the present invention to determine the anti-HIV activity of the material.
In detail, the mixture of cell+HIV+sample (active compound) was cultured for 1 week, and then cell toxicity was measured by XTT method. […]
In this example, colorimetric assay was adopted to observe the growth and death of the cells, which uses the fact that tetrazole salt (MTT, XTT, WST-1) is broken only in the living cell to form non-soluble formazan structure. By quantitating the amount of the formazane wih ELISA method, the amount of living cell is measured quantitatively. […]

Compound | activity when sample is added to the cell and virus infected 30 minutes later (HIV [1]) | anti-AIDS activity of fractions of Dong 1-2 (HIV [2])
CC(C)CC(NC(=O)C1CCCN1)C(=O)O (stereo not drawn) [Dong 1-2-5, 4-methyl-2-[(pyrolidine-2-carbonyl)-2-amino]pentanoic acid] (H-Pro-Leu-OH; configuration not given here) | showed activity | more intense activity compared to others
COC(C)C1NC(=O)C(CCC(=O)O)NC1=O (stereo not shown) [Dong 1-2-4, 3-[5-(methoxy-ethyl)-3,6-dioxo-piperazine-2-yl]propionic acid] | showed activity | more intense activity compared to others
